Assay results taken from US20080170990A1, “Methods for Myocardial Imaging in Patients Having a History of Pulmonary Disease” (CV THERAPEUTICS, INC., priority 2006, published 2008).
Like-named read-outs stand apart in the source and are kept apart here.

Key:
[1] = test system: patients undergoing a clinically indicated coronary catheterization; test: Coronary blood flow velocity (CBFv) by Doppler flow wire after IV bolus, open label study (Example 1); format: in vivo, human
Procedure: The purpose of this open label study was to determine the magnitude and duration of effect of Regadenoson (10-500 μg) on CBFv in humans.
Patients undergoing a clinically indicated coronary catheterization with no more than a 70% stenosis in any coronary artery and no more than a 50% stenosis of the study vessel had CBFv determined by Doppler flow wire. Study subjects were selected after measuring baseline and peak CBFv after an intracoronary (IC) injection of 18 μg of Ado. Twenty-three patients, who were identified as meeting the study criteria of having a peak to baseline CBFv ration of ≧2.5 in response to Adenosine, received a rapid (≦10 sec) peripheral IV bolus of Regadenoson; Doppler signals were stable and interpretable over the time-course of the increase in CBFv in 17 patients.

[2] = test system: healthy, non-smoking male subjects; test: Phase 1 ascending dose study, safety and maximum tolerated dose (Example 3); format: in vivo, human
Procedure: The study was performed using thirty-six healthy, non-smoking male subjects between the ages of 18 and 59 and within 15% of ideal body weight.
The study was performed in phase 1, single center, double-blind, randomized, placebo-controlled, crossover, ascending dose study. Randomization was to Regadenoson or placebo, in both supine and standing positions.
(§1) Regadenoson was administered as an IV bolus (20 seconds) in ascending doses of […], 10, 20 and 30 μg/kg.
Subjects received either Regadenoson of placebo on Day 1 supine, then crossover treatment on Day 2 supine. On Day 3, subjects received Regadenoson or placebo standing, then crossover treatment on Day 4 standing.
Patient safety was monitored by ECG, laboratory assessments, and collection of vital signs and adverse events.

[3] = Phase 1 pharmacokinetics after single IV bolus, three-compartment model (Example 3); format: in vivo, human; details: for Vd: human, plasma, intravenous, read-out: Vc (central volume of distribution)
Procedure: as §1
Plasma samples were drawn during supine phase (Days 1 and 2) at 0, 1, 2, 3, 4, 5, 7, 10, 15, 20, 30, 45 minutes after dosing and at 1, 1.5, 2, 4, 6, 8, 12 and 24 hours after dosing. Urine was collected for 24 hours for Regadenoson excretion.
A three-compartment open model was fit to the data using observed Tmax (1-4 minutes) as the duration of a zero-order infusion. Reliable parameter estimates were obtained for dose of 1-30 μg/kg. Parameters are summarized in the following (Table 2): […]

anesthetized dog = test: Blood flow velocity in various vascular beds, intravascular Doppler (Example 4); format: in vivo; details: 1.0 μg/kg intravenous bolus
Description: The effects of Regadenoson were quantified as the average peak blood flow velocity (APV) using intravascular Doppler transducer tipped catheter. Heart rate (HR) and systemic arterial blood pressure (BP) were also monitored.

[4] = test system: subjects undergoing stress/rest MPI; test: Stress/rest SPECT myocardial perfusion imaging, adenosine vs Regadenoson (Example 6); format: in vivo, human; details: 4D MSPECT; p=n.s.
Procedure: To determine the ability of Regadenoson to produce coronary hyperemia and accurately detect CAD, 35 subjects (26 men, 9 women; 67±10 years) underwent both A and Regadenoson stress/rest MPI, with 10.0±9.1 days between studies. […] Regadenoson [400 mcg (n=18), 500 mcg (n=17)] was administered as an IV bolus immediately followed by a saline flush, and then a Tc-99m radiopharmaceutical [sestamibi (n=34), tetrofosmin (n=1)]. SPECT images were uniformly processed, intermixed with control studies (normal and fixed-only defects), and interpreted by three observers in a blinded fashion using a 17-segment model. Quantitative analysis was also performed using 4D MSPECT. In addition to three separate readings, a consensus interpretation was performed and then a direct, same-screen comparison of A and REGADENASON images undertaken to determine relative differences, using 5 regions per study.

awake dogs = test: Blood flow in coronary, mesenteric, hind limb and renal vascular beds (Example 8); format: in vivo, dog
Description: In this study the vasodilator effects of Regadenoson were compared to those of ADO in different vascular beds in awake dogs. Dogs were chronically instrumented for measurements of the blood flow in coronary (CBF), mesenteric (MBF), hind limb (LBF), and renal (RBF) vascular beds, and hemodynamics.

COPD patients = details: both, human, in vivo
Description: COPD patients were selected from two phase III randomized, triple-blind, placebo-controlled, multicenter studies (N=2,015) designed to test the strength of agreement for reversible cardiac defects between ADO and REG. There were 35 patients in the ADO group and 69 in the Regadenoson group. Age and gender were similar between ADO (68=11 yrs; 77% male) and Regadenoson group (68±11 yrs; 81% male). Of the 35 patients, 5 suffered (14%) cardiac symptoms in the ADO group vs 3/69 (4%) in the Regadenoson group (p=0.12); 14/35 (40%) in the ADO vs. 20/69 (29%) in the Regadenoson group resorted respiratory symptoms (p=0.28). Angina, occurrence of second degree AV block, acute pulmonary oedema and ronchi were higher in ADO group; nausea, GI discomfort and headache occurred more often in the Regadenoson group.

[5] = test system: patients with moderate or several chronic obstructive pulmonary disease (COPD); test: Double-blind placebo-controlled crossover trial in chronic obstructive pulmonary disease (Example 11); format: in vivo, human
Procedure: Two similar randomized, double-blind, placebo (PLC)-controlled crossover trials were conducted, one in asthmatics with a positive adenosine monophosphate (AMP) challenge (a validated marker of airway inflammation) and one in patients with moderate or several chronic obstructive pulmonary disease (COPD). In both studies, short-acting bronchodilators were held prior to and for the 120 minute time frame study drug treatment during which spirometry was repeatedly assessed.

[6] = 30 μg/kg supine, 4 subjects per group

For `CNC(=O)c1cnn(-c2nc(N)c3ncn([C@@H]4O[C@H](CO)[C@@H](O)[C@H]4O)c3n2)c1` [Regadenoson, (1-{9-[(4S,2R,3R,5R)-3,4-dihydroxy-5-(hydroxymethyl)oxolan-2-yl]-6-aminopurin-2-yl}pyrazol-4-yl)-N-methylcarboxamide], the “maximal decrease in systolic BP” value ([1]; 500 μg IV bolus) was 8.7±7.6, the “maximal increase in HR” value ([1]; 500 μg IV bolus) was 18.7±4.0 and the “adverse events (AEs)” value ([1]; 3 patients receiving the 500 μg dose) was “No AEs”. The “adverse events (AEs)” value ([1]; 10-500 μg IV bolus, nausea, flushing, headache, mild and self-limited) was “infrequent”, the “peak to baseline CBFv ratio” value ([1]; Regadenoson 100, 300 and 500 μg IV bolus, mean ±SD) was 3.2±0.6 and the “number of subjects with severe AE: Palpitation” value [2, 6] was 2. For the same compound, the “number of subjects with severe AE: Syncope” value [2, 6] was 0, the tolerability ([2]; healthy volunteers, single IV bolus) was “well-tolerated” and the mean tolerable dose ([2]; standing) was 0.01 mg/kg. For the same compound, the mean tolerable dose ([2]; supine) was 0.02 mg/kg, the “K21 (rate constant for transfer from first peripheral to central compartment)” value ([3]; Total (all doses), N=22, mean) was 0.258 min⁻¹ and the “K31 (rate constant for transfer from second peripheral to central compartment)” value ([3]; Total (all doses), N=22, mean) was 0.0143 min⁻¹. For the same compound, the “Vss (volume of distribution at steady state)” value ([3]; Total (all doses), N=22, mean) was 75.5 L, the “K21 (rate constant for transfer from first peripheral to central compartment)” value ([3]; dose 1 μg/kg, N=3, mean) was 0.246 min⁻¹ and the “K31 (rate constant for transfer from second peripheral to central compartment)” value ([3]; dose 1 μg/kg, N=3, mean) was 0.01808 min⁻¹. The “K21 (rate constant for transfer from first peripheral to central compartment)” value ([3]; dose 3 μg/kg, N=4, mean) was 0.203 min⁻¹, the “K31 (rate constant for transfer from second peripheral to central compartment)” value ([3]; dose 3 μg/kg, N=4, mean) was 0.0152 min⁻¹ and the “α Half-life” value ([3]; dose 3 μg/kg, N=4, mean) was 3.11 min. For the same compound, the “K21 (rate constant for transfer from first peripheral to central compartment)” value ([3]; dose 10 μg/kg, N=4, mean) was 0.187 min⁻¹, the “K31 (rate constant for transfer from second peripheral to central compartment)” value ([3]; dose 10 μg/kg, N=4, mean) was 0.0108 min⁻¹ and the “K21 (rate constant for transfer from first peripheral to central compartment)” value ([3]; dose 20 μg/kg, N=8, mean) was 0.387 min⁻¹. The “K31 (rate constant for transfer from second peripheral to central compartment)” value ([3]; dose 20 μg/kg, N=8, mean) was 0.0141 min⁻¹, the “CL (clearance)” value ([3]; dose 20 μg/kg, N=8, mean (SD)) was 743 (123) mL/min and the “K21 (rate constant for transfer from first peripheral to central compartment)” value ([3]; dose 30 μg/kg, N=3, mean) was 0.0948 min⁻¹. For the same compound, the “K31 (rate constant for transfer from second peripheral to central compartment)” value ([3]; dose 30 μg/kg, N=3, mean) was 0.0148 min⁻¹, the “Vss (volume of distribution at steady state)” value ([3]; dose 30 μg/kg, N=3, mean) was 89.6 L and the “λ Half-life” value ([3]; dose 30 μg/kg, N=3, mean) was 99.4 min. For the same compound, the Vd ([3]; 1 ug/kg, N=3, mean (SD)) was 9.84 L, the Vd ([3]; 3 ug/kg, N=4, mean (SD)) was 13.7 L and the Vd ([3]; 10 ug/kg, N=4, mean (SD)) was 17.9 L. The Vd ([3]; 20 ug/kg, N=8, mean) was 12.5 L, the Vd ([3]; 30 ug/kg, N=3, mean) was 15.7 L and the Vd ([3]; Total (all doses), N=22, mean) was 13.8 L. For the same compound, the “time for effect on blood flow velocity to dissipate” value (anesthetized dog) was “less than ten minutes”, the “summed score following stress, quantitative analysis” value [4] was 133.6±1.6 and the “potency relative to adenosine in increasing coronary blood flow velocity (CBFv)” value (awake dogs; awake dogs) was greater than 100 fold. For the same compound, the “increase in hind limb blood flow (LBF)” value (awake dogs; mean ±SE, n=6, FIG. 18) was “smaller increase in LBF than ADO”, the “patients with cardiac symptoms” value (COPD patients) was 4% and the “patients with cardiac symptoms, number” value (COPD patients) was 3/69. The “patients with respiratory symptoms” value (COPD patients) was 29%, the “patients with respiratory symptoms, number” value (COPD patients) was 20/69 and the “incidence of dyspnea following REG” value ([5]; COPD study) was 61%. The “Number of patients with FEV1 decline by >20% over 120 min” value ([5]; COPD study N=49) was 2 REG, 3 PLC, the “Number of patients with FEV1 decline by >30% over 120 min” value ([5]; COPD study N=49) was 0 REG, 1 PLC and the “Number of patients with use of acute oxygen or short-acting bronchodilators” value ([5]; COPD study N=49) was 0 REG, 0 PLC. The “Number of patients with FEV1 decline by >15% over 120 min” value ([5]; COPD study N=49, p = 0.31) was 6 REG, 3 PLC, the “Number of patients with new onset wheezing” value ([5]; COPD study N=49, p = 0.33 vs PLC) was 3 REG, 6 PLC and the “Maximum decline in FEV1” value ([5]; COPD study N=49, p = 0.55 vs PLC) was 0.11 (0.14)L REG. The “Maximum decline in oxygen saturation” value ([5]; COPD study N=49, p = 0.72 vs PLC) was 1.21 (1.30)% REG.
